Among the data in ChEMBL document CHEMBL1131281, “Cyclopentanedi- and tricarboxylic acids as squalene synthase inhibitors: syntheses and evaluation” (Bioorg Med Chem Lett, 1998) are inhibition and IC50 values, retold here.

The target in one assay is T1, Squalene synthase (Rattus norvegicus) (UniProt Q02769).
T1 sequence (whole entry): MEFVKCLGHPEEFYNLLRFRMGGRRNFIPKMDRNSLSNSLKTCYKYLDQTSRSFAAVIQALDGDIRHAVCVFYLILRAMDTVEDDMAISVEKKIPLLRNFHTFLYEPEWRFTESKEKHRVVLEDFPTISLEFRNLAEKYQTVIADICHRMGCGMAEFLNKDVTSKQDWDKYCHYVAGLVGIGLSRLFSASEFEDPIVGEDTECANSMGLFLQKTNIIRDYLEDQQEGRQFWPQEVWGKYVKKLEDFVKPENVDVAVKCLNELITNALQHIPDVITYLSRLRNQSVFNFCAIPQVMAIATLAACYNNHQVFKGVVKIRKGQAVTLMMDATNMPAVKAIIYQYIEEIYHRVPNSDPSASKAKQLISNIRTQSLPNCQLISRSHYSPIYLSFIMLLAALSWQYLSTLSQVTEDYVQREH
Briefly: Percent inhibition of squalene synthase from rat liver microsomes using [3H]farnesyl pyrophosphate (FPP) as substrate at 1 uM concentration. On the technique in general: Microsomes from liver hold many membrane-bound enzymes, among them those of drug oxidation.
As to `CCCN(Cc1ccc(Oc2ccccc2)cc1)C(=O)[C@@H]1[C@@H](C(=O)N(CCC)Cc2ccc(Oc3ccccc3)cc2)[C@@H](C(=O)O)C[C@@H]1C(=O)O`, the inhibition (commonly the drop in the measured response relative to a control, in per cent) came out at 24%.
On the same count and under the same terms, the value for `CCCN(Cc1ccc(Oc2ccccc2)cc1)C(=O)[C@H]1C[C@@H](C(=O)N(CCC)Cc2ccc(Oc3ccccc3)cc2)[C@@](CC(=O)O)(C(=O)O)C1` was 44%; that for `CCCN(Cc1ccc(Oc2ccccc2)cc1)C(=O)[C@@H]1[C@@H](C(=O)N(CCC)Cc2ccc(Oc3ccccc3)cc2)[C@H](C(=O)O)C[C@@H]1C(=O)O` was 45%.
Consider `CCCN(Cc1ccc(Oc2ccccc2)cc1)C(=O)[C@H]1C[C@@H](C(=O)N(CCC)Cc2ccc(Oc3ccccc3)cc2)[C@@](CC(=O)O)(C(=O)O)[C@@H]1C(=O)O`, for which the inhibition was 38%.
`CCCN(Cc1ccc(Oc2ccccc2)cc1)C(=O)[C@H]1C[C@@H](C(=O)N(CCC)Cc2ccc(Oc3ccccc3)cc2)[C@@](CC(=O)O)(C(=O)O)[C@H]1C(=O)O` showed an inhibition of 25%.

For another assay, the target named is T2, Squalene synthase (Rattus norvegicus, UniProt Q02769).
T2 sequence (Q02769 whole entry): T1 sequence (whole entry)
In words: Percent inhibition of squalene synthase from rat liver microsomes using [3H]farnesyl pyrophosphate (FPP) as substrate; NA indicates <20% inhibition at 1 uM concentration.
In the case of `CCCN(Cc1ccc(Oc2ccccc2)cc1)C(=O)[C@H]1C[C@@H](C(=O)N(CCC)Cc2ccc(Oc3ccccc3)cc2)[C@](CC(=O)O)(C(=O)O)C1`, the IC50 (as a rule, the midpoint of a concentration-inhibition curve) is reported as “Not Active”.
In the case of `CCCN(Cc1ccc(Oc2ccccc2)cc1)C(=O)[C@@H]1[C@H](C(=O)O)[C@@H](C(=O)N(CCC)Cc2ccc(Oc3ccccc3)cc2)O[C@H]1C(=O)O`, the concentration for half-maximal inhibition (IC50) entry is “Not Active”.

The target in the next assay is T2, Squalene synthase. Briefly: Compound was tested for inhibition of squalene synthase from rat liver microsomes using [3H]farnesyl pyrophosphate (FPP) as substrate.
Compound `CCCN(Cc1ccc(Oc2ccccc2)cc1)C(=O)[C@@H]1[C@H](C(=O)N(CCC)Cc2ccc(Oc3ccccc3)cc2)[C@H](C(=O)O)C[C@@H]1C(=O)O` gave an IC50 of 9100 nM.
The compound `CCCN(Cc1ccc(Oc2ccccc2)cc1)C(=O)[C@H]1C[C@@H](C(=O)N(CCC)Cc2ccc(Oc3ccccc3)cc2)[C@](CC(=O)O)(C(=O)O)[C@H]1C(=O)O` registered an IC50 of 240 nM.
The same measure, in the same setting: the value for `CCCN(Cc1ccc(Oc2ccccc2)cc1)C(=O)[C@H]1[C@@H](C(=O)O)[C@@H](C(=O)N(CCC)Cc2ccc(Oc3ccccc3)cc2)C[C@H]1C(=O)O` was 2900 nM; that for `CCCN(Cc1ccc(Oc2ccccc2)cc1)C(=O)[C@H]1[C@@H](C(=O)O)[C@H](C(=O)O)O[C@@H]1C(=O)N(CCC)Cc1ccc(Oc2ccccc2)cc1` was 3000 nM; that for `CCCN(Cc1ccc(Oc2ccccc2)cc1)C(=O)[C@H]1C[C@@H](C(=O)N(CCC)Cc2ccc(Oc3ccccc3)cc2)[C@H](C(=O)O)[C@H]1C(=O)O` was 580 nM.
The same measure, in the same setting: then `CCCN(Cc1ccc(Oc2ccccc2)cc1)C(=O)[C@H]1C[C@H](C(=O)N(CCC)Cc2ccc(Oc3ccccc3)cc2)[C@H](C(=O)O)[C@H]1C(=O)O`, with 170 nM.
